Laboratory results: patent publication US5281604A, “Angiotensin II receptor blocking 2,3,6-substituted quinazolinones” (American Cyanamid Company, priority 1993, dated 1994)
Several values for one entry are separate records, joined by “and”; a condition that tells them apart may be missing. Equal entries are not always repeated.

Test system: ANGIOTENSIN II (AII) VASOPRESSOR RESPONSE
Test: AII Challenge: blockade of the angiotensin II vasopressor response in conscious spontaneously hypertensive rats
Type: in vivo, rat (Male Okamoto-Aoki SHR)
From the text: By administering a compound of this invention to a rat, and then challenging with angiotensin II, a blockage of the vasopressor response is realized.
Conscious Male Okamoto-Aoki SHR, 16-20 weeks old, weighing approximately 330 g are purchased from Charles River Labs (Wilmington, Mass.). Conscious rats are restrained in a supine position with elastic tape. The area at the base of the tail is locally anesthetized by subcutaneous infiltration with 2% procaine. The ventral caudal artery and vein are isolated, and a cannula made of polyethylene (PE) 10-20 tubing (fused together by heat) is passed into the lower abdominal aorta and vena cava, respectively. The cannula is secured, heparinized (1,000 I.U./ml), sealed and the wound is closed. The animals are placed in plastic restraining cages in an upright position. The cannula is attached to a Statham P23Db pressure transducer, and pulsatile blood pressure is recorded to 10-15 minutes with a Gould Brush recorder. (Chan et al., (Drug Development Res., 18:75-94, 1989).
Angiotensin II (human sequence, Sigma Chem. Co., St. Louis, Mo.) of 0.05 and 0.1 ug/kg i.v. is injected into all rats (predosing response). Then a test compound, vehicle or a known angiotensin II antagonist is administered i.v., i.p. or orally to each set of rats. The two doses of angiotensin II are given to each rat again at 30, 60, 90, 120, 180, 240 and 300 minutes post dosing the compound or vehicle. The vasopressor response of angiotensin II is measured for the increase in systolic blood pressure in mmHg. The percentage of antagonism or blockade of the vasopressor response of angiotensin II by a compound is calculated using the vasopressor response (increase in systolic blood pressure) of angiotensin II of each rat predosing the compound as 100%. A compound is considered active if at 30 mg/kg i.v. it antagonized at least 50% of the response.

[1] = 3 mg/kg i.v., AII 0.05 mcg/kg IV, 30 min post dose
[2] = 3 mg/kg i.v., AII 0.05 mcg/kg IV, 60 min post dose
[3] = 3 mg/kg i.v., AII 0.05 mcg/kg IV, 90 min post dose
[4] = 3 mg/kg i.v., AII 0.05 mcg/kg IV, 120 min post dose
[5] = 3 mg/kg i.v., AII 0.05 mcg/kg IV, 180 min post dose
[6] = 3 mg/kg i.v., AII 0.05 mcg/kg IV, 240 min post dose
[7] = 3 mg/kg i.v., AII 0.05 mcg/kg IV, 300 min post dose
[8] = 3 mg/kg i.v., AII 0.1 mcg/kg IV, 30 min post dose
[9] = 3 mg/kg i.v., AII 0.1 mcg/kg IV, 60 min post dose
[10] = 3 mg/kg i.v., AII 0.1 mcg/kg IV, 90 min post dose
[11] = 3 mg/kg i.v., AII 0.1 mcg/kg IV, 120 min post dose
[12] = 3 mg/kg i.v., AII 0.1 mcg/kg IV, 180 min post dose
[13] = 3 mg/kg i.v., AII 0.1 mcg/kg IV, 240 min post dose
[14] = 3 mg/kg i.v., AII 0.1 mcg/kg IV, 300 min post dose
[15] = 3 mg/kg p.o., AII 0.05 mcg/kg IV, 30 min post dose
[16] = 3 mg/kg p.o., AII 0.05 mcg/kg IV, 60 min post dose
[17] = 3 mg/kg p.o., AII 0.05 mcg/kg IV, 90 min post dose
[18] = 3 mg/kg p.o., AII 0.05 mcg/kg IV, 120 min post dose
[19] = 3 mg/kg p.o., AII 0.05 mcg/kg IV, 180 min post dose
[20] = 3 mg/kg p.o., AII 0.05 mcg/kg IV, 240 min post dose
[21] = 3 mg/kg p.o., AII 0.1 mcg/kg IV, 30 min post dose
[22] = 3 mg/kg p.o., AII 0.1 mcg/kg IV, 60 min post dose
[23] = 3 mg/kg p.o., AII 0.1 mcg/kg IV, 90 min post dose
[24] = 3 mg/kg p.o., AII 0.1 mcg/kg IV, 120 min post dose
[25] = 3 mg/kg p.o., AII 0.1 mcg/kg IV, 180 min post dose
[26] = 3 mg/kg p.o., AII 0.1 mcg/kg IV, 240 min post dose

CCCCc1nc2ccc([C@H]3OC[C@H]4[C@@H]3ON3[C@@H]4CCC3(C)C)cc2c(=O)n1Cc1ccc(-c2ccccc2-c2nnn[nH]2)cc1 (relative stereo) [Example 7, (1α, 3aα, 8aβ, 8bα)-2-Butyl-6-(octahydro-6,6-dimethylfuro[3,4-d]pyrrolo[1,2-b]isoxazol-1-yl)-3-[[2'-(1H-tetrazol-5-yl)[1,1'-biphenyl]-4-yl]methyl]-4 (3H)-quinazolinone]
% Inhibition [1]: 91%
Average Change [1]: 4.5 mmHg
Control Before AII (single rat) [1]: 245 mmHg and 214 mmHg
Response After AII (single rat) [1]: 245 mmHg and 223 mmHg
Response Change (single rat) [1]: 0 mmHg and 9 mmHg
% Inhibition [2]: 84%
Average Change [2]: 7.5 mmHg
Control Before AII (single rat) [2]: 240 mmHg and 225 mmHg
Response After AII (single rat) [2]: 255 mmHg and 225 mmHg
Response Change (single rat) [2]: 15 mmHg and 0 mmHg
% Inhibition [3]: 89%
Average Change [3]: 5 mmHg
Control Before AII (single rat) [3]: 235 mmHg
Response After AII (single rat) [3]: 240 mmHg
Response Change (single rat) [3]: 5 mmHg
% Inhibition [4]: 84%
Average Change [4]: 7.5 mmHg
Control Before AII (single rat) [4]: 225 mmHg and 220 mmHg
Response After AII (single rat) [4]: 235 mmHg and 225 mmHg
Response Change (single rat) [4]: 10 mmHg and 5 mmHg
% Inhibition [5]: 79%
Average Change [5]: 10 mmHg
Control Before AII (single rat) [5]: 225 mmHg and 215 mmHg
Response After AII (single rat) [5]: 235 mmHg and 225 mmHg
Response Change (single rat) [5]: 10 mmHg
% Inhibition [6]: 63%
Average Change [6]: 17.5 mmHg
Control Before AII (single rat) [6]: 225 mmHg and 215 mmHg
Response After AII (single rat) [6]: 235 mmHg and 240 mmHg
Response Change (single rat) [6]: 10 mmHg and 25 mmHg
% Inhibition [7]: 74%
Average Change [7]: 12.5 mmHg
Control Before AII (single rat) [7]: 235 mmHg and 210 mmHg
Response After AII (single rat) [7]: 242 mmHg and 228 mmHg
Response Change (single rat) [7]: 7 mmHg and 18 mmHg
% Inhibition [8]: 90%
Average Change [8]: 5 mmHg
Control Before AII (single rat) [8]: 255 mmHg and 220 mmHg
Response After AII (single rat) [8]: 260 mmHg and 225 mmHg
Response Change (single rat) [8]: 5 mmHg
% Inhibition [9]: 86%
Average Change [9]: 7.5 mmHg
Control Before AII (single rat) [9]: 250 mmHg and 215 mmHg
Response After AII (single rat) [9]: 255 mmHg and 225 mmHg
Response Change (single rat) [9]: 5 mmHg and 10 mmHg
% Inhibition [10]: 83%
Average Change [10]: 9 mmHg
Control Before AII (single rat) [10]: 235 mmHg and 225 mmHg
Response After AII (single rat) [10]: 238 mmHg and 240 mmHg
Response Change (single rat) [10]: 3 mmHg and 15 mmHg
% Inhibition [11]: 86%
Average Change [11]: 7.5 mmHg
Control Before AII (single rat) [11]: 235 mmHg and 215 mmHg
Response After AII (single rat) [11]: 240 mmHg and 225 mmHg
Response Change (single rat) [11]: 5 mmHg and 10 mmHg
% Inhibition [12]: 72%
Average Change [12]: 14.5 mmHg
Control Before AII (single rat) [12]: 235 mmHg and 205 mmHg
Response After AII (single rat) [12]: 245 mmHg and 224 mmHg
Response Change (single rat) [12]: 10 mmHg and 19 mmHg
% Inhibition [13]: 81%
Average Change [13]: 10 mmHg
Control Before AII (single rat) [13]: 235 mmHg and 225 mmHg
Response After AII (single rat) [13]: 245 mmHg and 235 mmHg
Response Change (single rat) [13]: 10 mmHg
% Inhibition [14]: 57%
Average Change [14]: 22.5 mmHg
Control Before AII (single rat) [14]: 230 mmHg and 215 mmHg
Response After AII (single rat) [14]: 250 mmHg and 240 mmHg
Response Change (single rat) [14]: 20 mmHg and 25 mmHg
% Inhibition [15]: 23%
Average Change [15]: 29 mmHg
Control Before AII (single rat) [15]: 215 mmHg and 205 mmHg
Response After AII (single rat) [15]: 248 mmHg and 230 mmHg
Response Change (single rat) [15]: 33 mmHg and 25 mmHg
% Inhibition [16]: 27%
Average Change [16]: 27.5 mmHg
Control Before AII (single rat) [16]: 230 mmHg and 195 mmHg
Response After AII (single rat) [16]: 255 mmHg and 225 mmHg
Response Change (single rat) [16]: 25 mmHg and 30 mmHg
% Inhibition [17]: 31%
Average Change [17]: 26 mmHg
Control Before AII (single rat) [17]: 210 mmHg and 193 mmHg
Response After AII (single rat) [17]: 245 mmHg and 210 mmHg
Response Change (single rat) [17]: 35 mmHg and 17 mmHg
% Inhibition [18]: 27%
Average Change [18]: 27.5 mmHg
Control Before AII (single rat) [18]: 210 mmHg and 195 mmHg
Response After AII (single rat) [18]: 245 mmHg and 215 mmHg
Response Change (single rat) [18]: 35 mmHg and 20 mmHg
% Inhibition [19]: 0%
Average Change [19]: 37.5 mmHg
Control Before AII (single rat) [19]: 210 mmHg and 190 mmHg
Response After AII (single rat) [19]: 255 mmHg and 220 mmHg
Response Change (single rat) [19]: 45 mmHg and 30 mmHg
% Inhibition [20]: 0%
Average Change [20]: 37.5 mmHg
Control Before AII (single rat) [20]: 210 mmHg and 190 mmHg
Response After AII (single rat) [20]: 260 mmHg and 215 mmHg
Response Change (single rat) [20]: 50 mmHg and 25 mmHg
% Inhibition [21]: 6%
Average Change [21]: 40 mmHg
Control Before AII (single rat) [21]: 215 mmHg and 200 mmHg
Response After AII (single rat) [21]: 260 mmHg and 235 mmHg
Response Change (single rat) [21]: 45 mmHg and 35 mmHg
% Inhibition [22]: 6%
Average Change [22]: 40 mmHg
Control Before AII (single rat) [22]: 215 mmHg and 195 mmHg
Response After AII (single rat) [22]: 255 mmHg and 235 mmHg
Response Change (single rat) [22]: 40 mmHg
% Inhibition [23]: 18%
Average Change [23]: 35 mmHg
Control Before AII (single rat) [23]: 215 mmHg and 195 mmHg
Response After AII (single rat) [23]: 260 mmHg and 220 mmHg
Response Change (single rat) [23]: 45 mmHg and 25 mmHg
% Inhibition [24]: 24%
Average Change [24]: 32.5 mmHg
Control Before AII (single rat) [24]: 205 mmHg and 190 mmHg
Response After AII (single rat) [24]: 240 mmHg and 220 mmHg
Response Change (single rat) [24]: 35 mmHg and 30 mmHg
% Inhibition [25]: 12%
Average Change [25]: 37.5 mmHg
Control Before AII (single rat) [25]: 215 mmHg and 180 mmHg
Response After AII (single rat) [25]: 260 mmHg and 210 mmHg
Response Change (single rat) [25]: 45 mmHg and 30 mmHg
% Inhibition [26]: 9%
Average Change [26]: 38.5 mmHg
Control Before AII (single rat) [26]: 213 mmHg and 185 mmHg
Response After AII (single rat) [26]: 265 mmHg and 210 mmHg
Response Change (single rat) [26]: 52 mmHg and 25 mmHg
